Values of other authors as cited in patent publication US20110008867A1, “COMPOSITIONS AND METHODS FOR THE PRODUCTION OF A COMPOUND” (GREENLIGHT BIOSCIENCES, priority 2008, published 2011).

How the values were obtained:
E. coli = conditions: in E. coli; concentration that inhibits cell growth
yeast = conditions: in yeast; concentration that inhibits cell growth

| SMILES | Inhibition Concentration (E. coli) | Inhibition Concentration (yeast) |
| --- | --- | --- |
| CCCCO [1-butanol] | 1.3% in E. coli |  |
| CCCCCCCCCCO [1-decanol] | 0.000236% in E. Coli |  |
| CCCCCO [1-pentanol] | 0.25% in E. Coli |  |
| CCO [Ethanol] | 5% | 15% |
